Measurements reported in patent US5712161A, “Method for culturing animal cells in collagen drops on a support” (Nitta Gelatin Inc., priority 1993, dated 1998).
Like-named read-outs stand apart in the source and are kept apart here.

What was measured:
[1] = test system: human breast cancer cells (surgical sample); assay: Anticancer agent sensitivity, Neutral Red stain, volume by image analysis; conditions: 24 h agent contact; for Neutral Red volume: image analysis of fixed, dried gel; for Effect/control (Neutral Red volume): ratio to control = 1.00
Experimental: (§1) Using a surgical sample as obtained from a human breast cancer patient as the starting material, it was treated according to the order as shown in the flow sheet.
(§2) The embedded culture was carried out as follows: 1 volume of 10-fold concentrated Ham's F12 culture solution (sodium bicarbonate-free) and 1 volume of a reconstituting buffer solution (50 mM NaOH solution containing 260 mM sodium bicarbonate and 200 mM-HEPES) were added to 8 volumes of Cellmatrix Type I-A (0.3% acid-soluble Type-I collagen solution: product of Nitta Gelatin Inc.); the breast cancer cells and the like as obtained in the above-mentioned preliminary culture and collection steps were added and well mixed into the resultant mixture; the final concentration was adjusted to 5×10^4 cells/ml; and the resultant mixture was kept in ice.
(§3) Next, this collagen mixture solution was placed onto a 24-well multiplate at 30 μl/well using a micropipette and gelated to prepare globular collagen gels (for details see Example 1G).
(§4) A 0.5-ml portion of the culture solution containing an anticancer agent was superposed on the globular collagen gel in which the cancer cells were embedded and which was obtained in the above-mentioned embedding step, and the cancer cells were allowed to be in contacted with the anticancer agent by keeping them in a 5% carbon dioxide incubator at 37° C. for 24 hours. The following six anticancer agents were used: MMC (mitomycin C), CDDP (cisplatin), VDS (vindesine), VP-16, 5-FU (5fluorouracil) and ADM (adriamycin).
(§5) Then, the culture solution containing the anticancer agent was removed by suction, 0.5 ml of a culture solution free from an anticancer agent was instead added, the resultant mixture was shaken in a 5% carbon dioxide incubator, thus washing the globular collagen gel. This procedure was repeated at least every 10 minutes for a total of 3 times, whereby the anticancer agent was removed from the globular collagen gel.
(§6) After the above-mentioned agent contact step, 0.5 ml of a culture solution was added, and the culture was effected at 37° C. in a 5% carbon dioxide incubator for 7-14 days. The culture solution was exchanged every 1-2 days. The proliferation culture solution as used was a culture solution containing a DF culture solution+10% FBS+5μg/ml insulin (product of Sigma Chemical Co.)+10 ng/ml EGF (EGF: epidermal growth factor, product of Becton Dickinson Labware)+20 ng/ml hydrocortisone (product of Sigma Chemical Co.) (see Example 1H).
(§7) The culture solution for the washing was a DME culture solution.
(§8) The culture solution was exchanged with a culture solution to which an NR-staining agent had been added (NR concentration: 25-50 μg/ml), and shaking was effected for 2 hours in a carbon dioxide incubator, thus incorporating the NR into the cells.
(§9) After the stain, the culture solution containing the NR was exchanged with PBS (Phosphate Buffered Saline), and the sample was allowed to stand stationary in a room for 10 minutes, thus removing the NR remaining outside of the cells.
(§10) Next, the PBS was exchanged with neutral 10% formalin, and the sample was allowed to stand stationary in a room for 40 minutes, thus fixing the cells and the NR as incorporated into the cells.
(§11) The globular collagen gel to which the cells had been fixed was immersed in distilled water for 10 minutes, thus removing the salts. When the globular collagen gel which had been immersed in the distilled water was air-dried at room temperature, whereby a flat dried product was formed.
(§12) At this time, the cultured cells were fixed in the dried collagen gel while containing the NR.
(§13) The volume of the fixed cells was measured using an image analyzer in the same manner as mentioned above.

[2] = test system: human breast cancer cells (surgical sample); conditions: primary breast cancer cells, 24 h
Experimental: as §1, §2, §3, §4, §5, §6, §7, §8, §9, §10, §11, §12, §13

[3] = test system: human breast cancer cells (surgical sample); conditions: primary breast cancer cells, 24 h; remark: listed apart in the source
Experimental: as §1, §2
(§14) A 0.5-ml portion of the culture solution containing an anticancer agent was superposed on the globular collagen gel in which the cancer cells were embedded and which was obtained in the above-mentioned embedding step, and the cancer cells were allowed to be in contacted with the anticancer agent by keeping them in a 5% carbon dioxide incubator at 37° C. for 24 hours.
as §5
(§15) After the above-mentioned agent contact step, 0.5 ml of a culture solution was added, and the culture was effected at 37° C. in a 5% carbon dioxide incubator for 7-14 days. The culture solution was exchanged every 1-2 days.
(§16) For the measurement, an AB coloring agent was used to cause a color reaction by the reductive activity of the cells.
(§17) The AB coloring agent was added in an amount of 1/50-1/10 relative to the culture solution, and the reaction was conducted for 6 hours in a carbon dioxide incubator.
(§18) The same culture solution was also measured using a fluorospectrophotometer, with an excitatory wavelength of 560 nm and a detection wavelength of 590 nm.

[4] = test system: human breast cancer cells (surgical sample); assay: Anticancer agent sensitivity, globular collagen gel-embedded culture, Alamar Blue fluorescence; conditions: 24 h agent contact; for AlamarBlue fluorescence intensity: excitation 560 nm, detection 590 nm; for Effect/control (AlamarBlue fluorescence): ratio to control = 1.00
Experimental: as §1, §2, §14, §5, §15, §16, §17, §18

[5] = test system: human breast cancer cells (surgical sample); assay: Anticancer agent sensitivity, globular collagen gel-embedded culture, Alamar Blue (AB) absorbance; conditions: 24 h agent contact, 7-14 days culture; for AlamarBlue absorbance: 570 nm, reference 600 nm; for Effect/control (AlamarBlue absorbance): ratio to control = 1.00
Experimental: (§19) The capsule, fat, etc. were removed from the tissue containing the breast cancer using scissors and forceps under aseptic conditions, and then sliced with a razor.
(§20) The live tumor cells as obtained by the above-mentioned preliminary culture and collection steps were embedded into a globular collagen gel and cultured.
as §2, §4, §5, §15
(§21) The viability of the cells in the sample as obtained by the culture was measured.
as §16, §17
(§22) After the reaction, the culture solution was separated off, and the absorbance of the culture solution was measured using a spectrophotometer. The measurement of the absorbance was performed at 570 nm with a reference wavelength of 600 nm.

[6] = test system: human breast cancer cells (surgical sample); conditions: primary breast cancer cells, 24 h; remark: listed apart in the source
Experimental: as §1, §2, §4, §5, §15
(§23) The culture solution for the washing was free from sodium bicarbonate and cooled to 4° C. before use.
(§24) The culture container was then transferred to a cooled dark box. The culture solution was exchanged with a culture solution, to which an FDA-staining agent (FDA concentration: 2-10 μg/ml) which reacts due to esterase activity in live cells had been added, and was shaken for one hour in a refrigerator (10° C.), thus reacting the FDA with the cells.
(§25) The fluorescently colored cells were quantified by image analysis. The image for the image analysis was created using, an inverted fluorescent microscope, a sample holder cooling apparatus (in-house product), an excitatory light irradiation control apparatus, a sample holder driving apparatus and a high-sensitivity cooled CCD camera. The volume was measured on the basis of this image using an image analyzer according to a conventional method. The intensity of the excitatory light was 1×10^3 lux.sec on the sample holder.

[7] = test system: human breast cancer cells (surgical sample); assay: Anticancer agent sensitivity, FDA spectrophotofluorimetry of extracted dye; conditions: 24 h agent contact; for FDA spectrophotofluorimetry fluorescence units: excitation 490 nm, detection 520 nm; for Effect/control (FDA spectrophotofluorimetry): ratio to control = 1.00
Experimental: as §2, §3, §4, §5, §6, §24
(§26) The cultured cell sample as subjected to the fluorescent stain was washed for one hour with a fresh cooled culture solution, thus removing the extracellular fluorescent reagent. The culture solution as used for the washing was a DME culture solution. This solution was further exchanged with a culture solution of 37° C., shaking was performed for one hour in an incubator at 37° C., and the FDA which had reacted in the cells was extracted into the solution. The culture solution was separated off and measured using a fluorospectrophotometer, with an excitatory wavelength of 490 nm and a detection wavelength of 520 nm.

[8] = test system: human breast cancer cells (surgical sample); conditions: primary breast cancer cells, 24 h; remark: listed apart in the source
Experimental: as §2, §3, §4, §5, §6, §24, §26

[9] = test system: human breast cancer cells (surgical sample); assay: Anticancer agent sensitivity, FDA stain, fluorescence intensity on image; conditions: 24 h agent contact; for FDA image fluorescence units: fluorescence intensity on image; for Effect/control (FDA image fluorescence): ratio to control = 1.00
Experimental: as §2, §3, §4, §5, §6
(§27) The culture solution was exchanged with a culture solution, to which an FDA-staining agent (FDA concentration: 2-10 μg/ml) which reacts due to esterase activity in live cells had been added, and was shaken for one hour in a refrigerator (10° C.), thus reacting the FDA with the cells.
as §25
(§28) In addition to the conventional known volume measurement by image analysis, the viability of the cells was also measured by quantifying the fluorescence intensity on the image.

[10] = test system: human breast cancer cells (surgical sample); conditions: primary breast cancer cells, 24 h; remark: listed apart in the source
Experimental: as §2, §3, §4, §5, §6, §27, §25, §28

[11] = test system: breast cancer cells (surgical sample from a human cancer patient); assay: Anticancer agent sensitivity, NR extraction method, absorbance; type: cell-based; conditions: for Effect/control (Neutral Red absorbance): control = 1.00
Experimental: A test was conducted in the same way as in Example 1, but the image analysis of live cells as stained with the NR was not carried out, and the NR was instead extracted from the live cells, thus measuring the absorbance. A surgical sample (breast cancer) as obtained from a human cancer patient was used as the starting material, and the test was carried out according to the same procedures and methods as in Example 1, except for the procedures of the formalin-fixation, the drying and the image analysis in the pigment stain analysis step. The NR as incorporated into live cells was extracted by dissolving the collagen gel with collagenase in the culture container and then adding an NR extractant, and the absorbance of the resultant extract was measured.

[12] = test system: human breast cancer cells (surgical sample); assay: Anticancer agent sensitivity, FDA stain, volume by image analysis; conditions: 24 h agent contact; for FDA volume: image analysis; for Effect/control (FDA volume): ratio to control = 1.00
Experimental: as §1, §2, §4, §5, §15, §23, §24, §25

[13] = test system: human breast cancer cells (surgical sample); conditions: primary breast cancer cells, 24 h; remark: listed apart in the source
Experimental: as §19, §20, §2, §4, §5, §15, §21, §16, §17, §22

[14] = test system: breast cancer cells (surgical sample from a human cancer patient); assay: Anticancer agent sensitivity, MTT assay method, formazane absorbance; type: cell-based; conditions: for Effect/control (formazane absorbance): control = 1.00
Experimental: A test was conducted in the same way as in Example 1, but an MTT reagent was substituted for the AB coloring agent in the colorimetric analysis step. A surgical sample (breast cancer) as obtained from a human cancer patient was used as the starting material, and the test was carried out according to the same procedures and methods as in Example 1, except for the procedures subsequent to the colorimetric analysis step. The formazane as deposited in live cells was extracted by dissolving the collagen gel with collagenase in the culture container and then adding a formazane extractant, and the absorbance of the resultant extract was measured, when the deposited fine crystal of formazane was held in the collagen gel, such that results were obtained with good accuracy.

[15] = test system: rabbit-oriented vascular endothelial cells; assay: Proliferation shape of vascular endothelial cells around globular collagen gel containing TGF-β; type: cell-based
Description: The procedure of Example 23 was repealed, but TGF-β (a transformation growth factor) was substituted for the cells of the group A, and rabbit-oriented vascular endothelial cells for the cells of the group B, and the following modifications were made. […] In FIG. 7, the transformation growth factor 70 is contained in the globular collagen gel 20a. A collagen gel 80a in which the rabbit-oriented vascular endothelial cells 50d were embedded was placed in the layered form into the inside of the multiplate 10, such that the globular collagen gel 20a was covered with the collagen gel 80a. The test was carried out in the same way as in Example 22 except for the components as contained in each collagen gel and for the placement of the gels. In addition, the collagen gel 80a was evaluated by microscopy.
As a result, different proliferation shapes of the vascular endothelial cells were observed depending on the distance from the surface of the globular collagen gel 20a.

[16] = test system: fibroblasts in human lung cancer and human breast cancer samples; assay: Fibroblast proliferation in preliminary culture, microscopic observation; type: cell-based; conditions: 10 μg/ml dextran sulfate in serum culture solution, 7 days
Experimental: Thus, an investigation was made with regard to a serum-free culture solution (DF culture solution+5 μg/ml insulin+10 ng/ml EGF+8 ng/ml sodium selenite+10 μg/ml transferrin+5 mg/ml BSA) (BSA: bovine serum albumin) and a serum culture solution containing dextran sulfate (DF culture solution+10% FBS+insulin+EGF+hydrocortisone 10 μg/ml dextran sulfate).
The experimental materials used were the 14 cases of human lung cancer and 12 cases of human breast cancer which had adhered to the bottom of the culture dishes in Example 1A above as controls, and the above-mentioned culture solutions (the serum-free culture solution and the dextran sulfate-containing serum culture solution) were used to culture cells for 7 days.

[17] = 5-FU concentration 0.1 (Cmax = 1)
[18] = 5-FU concentration 0.2 (Cmax = 1)
[19] = 5-FU concentration 0.4 (Cmax = 1)
[20] = 5-FU concentration 0.6 (Cmax = 1)
[21] = 5-FU concentration 0.8 (Cmax = 1)
[22] = 5-FU concentration 1.0 (Cmax = 1)

O=c1[nH]cc(F)c(=O)[nH]1 [5-FU, 5fluorouracil]
Neutral Red volume [1]: 10.76 10^7 μm^3 | Effect/control (Neutral Red volume) [2]: 0.64 | Effect/control (AlamarBlue fluorescence) [3]: 0.71 | AlamarBlue fluorescence intensity [4]: 5.07 10^2 | AlamarBlue absorbance [5]: 0.69 | Effect/control (FDA volume) [6]: 0.65 | FDA spectrophotofluorimetry fluorescence units [7]: 4.68 10^1 | Effect/control (FDA spectrophotofluorimetry) [8]: 0.63 | FDA image fluorescence units [9]: 4.77 10^1 | Effect/control (FDA image fluorescence) [10]: 0.62 | Neutral Red absorbance [11, 17]: 0.307 | Effect/control (Neutral Red absorbance) [11, 17]: 0.88 | Neutral Red absorbance [11, 18]: 0.206 | Effect/control (Neutral Red absorbance) [11, 18]: 0.59 | Neutral Red absorbance [11, 19]: 0.123 | Effect/control (Neutral Red absorbance) [11, 19]: 0.35 | Neutral Red absorbance [11, 20]: 0.100 | Effect/control (Neutral Red absorbance) [11, 20]: 0.29 | Neutral Red absorbance [11, 21]: 0.079 | Effect/control (Neutral Red absorbance) [11, 21]: 0.23 | Neutral Red absorbance [11, 22]: 0.072 | Effect/control (Neutral Red absorbance) [11, 22]: 0.21 | FDA volume [12]: 9.89 10^7 μm^3 | Effect/control (AlamarBlue absorbance) [13]: 0.73 | Formazane absorbance [14, 17]: 1.036 | Effect/control (formazane absorbance) [14, 17]: 0.88 | Formazane absorbance [14, 18]: 0.774 | Effect/control (formazane absorbance) [14, 18]: 0.66 | Formazane absorbance [14, 19]: 0.599 | Effect/control (formazane absorbance) [14, 19]: 0.51 | Formazane absorbance [14, 20]: 0.515 | Effect/control (formazane absorbance) [14, 20]: 0.44 | Formazane absorbance [14, 21]: 0.450 | Effect/control (formazane absorbance) [14, 21]: 0.38 | Formazane absorbance [14, 22]: 0.429 | Effect/control (formazane absorbance) [14, 22]: 0.37

COc1cccc2c1C(=O)c1c(O)c3c(c(O)c1C2=O)C[C@@](O)(C(=O)CO)C[C@@H]3O[C@H]1C[C@H](N)[C@H](O)[C@H](C)O1 [ADM, adriamycin]
Neutral Red volume [1]: 12.26 10^7 μm^3 | Effect/control (Neutral Red volume) [1]: 0.73 | AlamarBlue fluorescence intensity [4]: 4.81 10^2 | Effect/control (AlamarBlue fluorescence) [4]: 0.68 | AlamarBlue absorbance [5]: 0.65 | Effect/control (AlamarBlue absorbance) [5]: 0.68 | FDA spectrophotofluorimetry fluorescence units [7]: 5.33 10^1 | Effect/control (FDA spectrophotofluorimetry) [7]: 0.72 | FDA image fluorescence units [9]: 5.35 10^1 | Effect/control (FDA image fluorescence) [9]: 0.70 | FDA volume [12]: 10.93 10^7 μm^3 | Effect/control (FDA volume) [12]: 0.72

[NH2][Pt]([NH2])([Cl])[Cl] [CDDP, cisplatin]
Neutral Red volume [1]: 6.25 10^7 μm^3 | Effect/control (Neutral Red volume) [1]: 0.37 | AlamarBlue fluorescence intensity [4]: 2.66 10^2 | Effect/control (AlamarBlue fluorescence) [4]: 0.38 | AlamarBlue absorbance [5]: 0.40 | Effect/control (AlamarBlue absorbance) [5]: 0.42 | FDA spectrophotofluorimetry fluorescence units [7]: 3.50 10^1 | Effect/control (FDA spectrophotofluorimetry) [7]: 0.47 | FDA image fluorescence units [9]: 3.43 10^1 | Effect/control (FDA image fluorescence) [9]: 0.45 | FDA volume [12]: 5.68 10^7 μm^3 | Effect/control (FDA volume) [12]: 0.37

CO[C@@]12[C@H](COC(N)=O)C3=C(C(=O)C(C)=C(N)C3=O)N1C[C@@H]1N[C@@H]12 [MMC, mitomycin C]
Neutral Red volume [1]: 5.19 10^7 μm^3 | Effect/control (Neutral Red volume) [2]: 0.31 | Effect/control (AlamarBlue fluorescence) [3]: 0.46 | AlamarBlue fluorescence intensity [4]: 3.24 10^2 | AlamarBlue absorbance [5]: 0.40 | Effect/control (FDA volume) [6]: 0.33 | FDA spectrophotofluorimetry fluorescence units [7]: 3.37 10^1 | Effect/control (FDA spectrophotofluorimetry) [8]: 0.46 | FDA image fluorescence units [9]: 3.26 10^1 | Effect/control (FDA image fluorescence) [10]: 0.42 | FDA volume [12]: 5.07 10^7 μm^3 | Effect/control (AlamarBlue absorbance) [13]: 0.42

CC[C@]1(O)C[C@@H]2CN(CCc3c([nH]c4ccccc34)[C@@](C(=O)OC)(c3cc4c(cc3OC)N(C)[C@H]3[C@@](O)(C(N)=O)[C@H](O)[C@]5(CC)C=CCN6CC[C@]43[C@@H]65)C2)C1 [VDS, vindesine]
Neutral Red volume [1]: 10.10 10^7 μm^3 | Effect/control (Neutral Red volume) [2]: 0.60 | Effect/control (AlamarBlue fluorescence) [3]: 0.72 | AlamarBlue fluorescence intensity [4]: 5.13 10^2 | AlamarBlue absorbance [5]: 0.69 | Effect/control (FDA volume) [6]: 0.61 | FDA spectrophotofluorimetry fluorescence units [7]: 4.52 10^1 | Effect/control (FDA spectrophotofluorimetry) [8]: 0.61 | FDA image fluorescence units [9]: 4.74 10^1 | Effect/control (FDA image fluorescence) [10]: 0.62 | FDA volume [12]: 9.25 10^7 μm^3 | Effect/control (AlamarBlue absorbance) [13]: 0.73

COc1cc(C2c3cc4c(cc3C(OC3OC5COC(C)OC5C(O)C3O)C3COC(=O)C23)OCO4)cc(OC)c1O (stereo not shown) [VP-16]
Neutral Red volume [1]: 15.54 10^7 μm^3 | Effect/control (Neutral Red volume) [1]: 0.92 | AlamarBlue fluorescence intensity [4]: 6.64 10^2 | Effect/control (AlamarBlue fluorescence) [4]: 0.94 | AlamarBlue absorbance [5]: 0,87 | Effect/control (AlamarBlue absorbance) [5]: 0.91 | FDA spectrophotofluorimetry fluorescence units [7]: 6.90 10^1 | Effect/control (FDA spectrophotofluorimetry) [7]: 0.93 | FDA image fluorescence units [9]: 7.23 10^1 | Effect/control (FDA image fluorescence) [9]: 0.94 | Effect/control (FDA volume) [12]: 0.93

TGF-β
Proliferation state of vascular endothelial cells ([15]; 0 mm from surface of gel 20a): lump | Proliferation state of vascular endothelial cells ([15]; 1 mm from surface of gel 20a): tree | Proliferation state of vascular endothelial cells ([15]; 3 mm from surface of gel 20a): lump | Proliferation state of vascular endothelial cells ([15]; 4 mm from surface of gel 20a): lump

dextran sulfate
proliferation of the fibroblasts [16]: partially suppressed
